Test results reported in US11014934B2, “Antiseptic drug” (AO “TATKHIMFARMPREPARATY”, priority 2017, dated 2021).
Where two headings read alike, the source gives them in different places.

Columns and labels:
[1] = test system: Aspergillus fumigates RCPF F-1248/880; assay: Antifungal activity, 2-fold serial dilutions in Saburo glucose broth; format: cell-based, Asp. fumigates; conditions: for MIC: Aspergillus
Description: The study of the antifungal activity of compound I in vitro was carried out in accordance with [Metodicheskiye rekomendatsii No 2. Mikologicheskoye issledovaniye ob″yektov okruzhayushchey sredy i opredeleniye protivogribkovoy aktivnosti razlichnykh veshchestv.—GOU DPO SPbMAPO NII meditsinskoy mikologii im. P. N. Kashkina, GBOU VPO SZGMU im. I. I. Mechnikova Minzdrava. SPb.: Izd. Dom SPbMAPO.—2008.—S. 16. Methodological recommendations No 2. Mycological examination of environmental objects and determination of antifungal activity of various substances.—State Educational Institution of St. Petersburg Medical Academy of Postgraduate Education with Scientific Research Institute of Medical Mycology named after P. N. Kashkin, State Educational Institution of Higher Professional Education North-West State Medical University named after I. I. Mechnikov, Ministry of Health. St. Petersburg.:: Publishing House SPbMAPO.—2008.—P. 16].
The study of the antifungal activity of substances in vitro was carried out in a liquid nutrient medium (Saburo glucose broth) in biological tubes by the method of 2-fold serial dilutions. In test tubes, three parallel series of dilutions of the test substance were prepared in the following way.
Saburo's liquid broth was sterilely poured in 3 ml into each tube; 4.5 ml was poured into the first tube of the row. A total of 14 tubes were used in a row; of which the last was a control one. […] The growth of cultures was initially assessed visually, comparing the growth of microorganisms in the presence of test compounds with the growth of culture without them. […] The first lowest concentration of the substance (from a series of consecutive dilutions), where the growth of fungi was suppressed or not visually determined, was considered the minimum inhibitory concentration (MIC).
For the preparation of inoculum, were respectively used pure (2-5) days cultures of yeast and mycelial fungi, grown on Saburo's dense nutrient broth. […] The inoculum was used within 15 minutes after preparation; the purity of the fungal strains was monitored before each experiment. […]

[2] = test system: P.aeruginosa in the biofilm; assay: Antibacterial activity against cells immersed in a biofilm matrix (CFU, drop plate); format: cell-based; conditions: 24 hours
Description: To determine the effectiveness of the antibiotic against bacteria in […], bacteria were grown in Basal medium for 3 days at a temperature of 37° C. without swinging to obtain a dense biofilm [A. R Kayumov, Khakimullina E., Sharafutdinov I, Trizna E., Latypova L., Lien Thi, Margulis A., Bogachev M, Kurbangalieva A. Inhibition of biofilm formation in Bacillus subtilis by new halogenated furanoses. J. Antibiotics.—2014.—V. 68.—No 5.—P. 297-301.]. Then the biofilm was washed with a sterile 0.9% NaCl solution and fresh sterile medium was poured. Antiseptics were added to concentrations (1-16)×MBC (minimum bactericidal concentration) and incubated for 24 hours. Then the culture fluid was removed from the wells, washed once with 0.9% NaCl solution to remove non-adherent cells, and cell viability in biofilms was evaluated by counting CFU by Drop plate analysis [B. Herigstad, M Hamilton, J. Heersink How to optimize the drop plate method for enumerating bacteria. J Microbiol Methods.—2001.—V. 44.—P. 121-129]. To do this, the biofilm was mechanically removed from the surface and homogenized in 0.9% NaCl by pipetting and ultrasonic treatment. Then, serial 10-fold dilutions of the bacterial suspension in 0.9% NaCl were prepared, and 5 μI of each suspension were transferred to plates with dense nutrient medium. CFU was counted from drops containing 5-10 colonies.
The results of the study of antimicrobial activity against cells of the studied strains immersed in the biofilm matrix, in comparison with miramistin and benzalkonium chloride, are presented in FIGS. 1 and 2.

Molecule	MIC ([1]; RCPFF1248/880, read-out: The value of the MIC)	excess of MBC giving a decrease in the number of CFU by 3 orders of magnitude [2]	MIC ([1]; RCPFF1248/880, Asp. fumigates RCPF F-l248/880, read-out: The value of the MIC)	The value of the MIC ([1]; Asp. fumigates RCPF F-l248/880)
CCCCCCCCCCCCCC(=O)NCCC[N+](C)(C)Cc1ccccc1.O.[Cl-] [Miramistin, benzyldimethyl [3-(myristoylamino)propyl]-ammonium chloride monohydrate]	31.2 µg/mL	16 times	–	–
CCCCCCCCCCCC[N+](C)(C)Cc1cnc(C[N+](C)(C)CCCCCCCCCCCC)c2c1COC(CC)O2 (stereo not drawn) [Compound I, 5,8-(Bis(methylene (N, N-dimethyl-N-dodecylammonium))-2-ethyl-4H-[1,3]dioxino [4,5-c]pyridiniumdichloride]	–	4-8 times	62.5 µg/mL	–
alkyldimethyl(phenylmethyl) ammonium chloride [Benzalconium chloride]	–	16 times	–	15.6 µg/mL
